Reference: US11766440B1, “Methods for the prevention and treatment of hearing loss” (Ting Therapeutics LLC, priority 2020, dated 2023)
Counter-ions that a name gives are not always drawn. Like-named read-outs stand apart in the source and are kept apart here.

Tests used:
TYK2 = TYK2 (Homo sapiens, UniProt P29597); conditions: cited from earlier work
JAK3 = target: T1, JAK3 (Homo sapiens, UniProt P52333); conditions: cited from earlier work
T1 sequence (P52333 1-1124): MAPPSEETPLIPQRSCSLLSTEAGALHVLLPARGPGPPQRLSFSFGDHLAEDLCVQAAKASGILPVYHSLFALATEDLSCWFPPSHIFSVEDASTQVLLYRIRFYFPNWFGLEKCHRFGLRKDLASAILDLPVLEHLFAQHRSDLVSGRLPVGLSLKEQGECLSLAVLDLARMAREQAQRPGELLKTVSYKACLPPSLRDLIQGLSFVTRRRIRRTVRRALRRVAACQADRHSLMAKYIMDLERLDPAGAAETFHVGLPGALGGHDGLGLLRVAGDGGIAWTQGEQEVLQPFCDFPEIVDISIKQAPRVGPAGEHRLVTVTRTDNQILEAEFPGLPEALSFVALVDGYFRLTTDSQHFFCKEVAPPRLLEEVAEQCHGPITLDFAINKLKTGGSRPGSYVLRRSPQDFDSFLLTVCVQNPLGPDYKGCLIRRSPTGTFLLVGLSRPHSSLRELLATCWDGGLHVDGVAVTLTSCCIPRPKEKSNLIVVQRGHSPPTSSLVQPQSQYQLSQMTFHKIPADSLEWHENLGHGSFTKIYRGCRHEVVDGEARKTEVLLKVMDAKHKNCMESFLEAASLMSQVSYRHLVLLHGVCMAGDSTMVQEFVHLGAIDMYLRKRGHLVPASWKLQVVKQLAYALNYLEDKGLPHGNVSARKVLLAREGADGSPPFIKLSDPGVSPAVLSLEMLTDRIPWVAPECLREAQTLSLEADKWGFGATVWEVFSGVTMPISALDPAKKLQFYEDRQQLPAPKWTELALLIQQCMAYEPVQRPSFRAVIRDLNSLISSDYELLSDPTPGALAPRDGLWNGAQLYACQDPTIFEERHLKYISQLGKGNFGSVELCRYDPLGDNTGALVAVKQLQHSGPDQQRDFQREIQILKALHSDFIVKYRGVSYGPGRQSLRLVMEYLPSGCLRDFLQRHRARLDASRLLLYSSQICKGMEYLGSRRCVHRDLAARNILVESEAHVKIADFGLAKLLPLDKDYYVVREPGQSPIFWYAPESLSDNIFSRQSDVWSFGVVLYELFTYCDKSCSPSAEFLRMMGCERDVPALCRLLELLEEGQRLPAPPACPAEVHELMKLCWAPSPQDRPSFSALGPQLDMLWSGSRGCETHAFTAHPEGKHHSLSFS

JAK1 = JAK1 (Homo sapiens, UniProt P23458); conditions: cited from earlier work
Sequence of JAK1 (P23458 whole entry, species assumed): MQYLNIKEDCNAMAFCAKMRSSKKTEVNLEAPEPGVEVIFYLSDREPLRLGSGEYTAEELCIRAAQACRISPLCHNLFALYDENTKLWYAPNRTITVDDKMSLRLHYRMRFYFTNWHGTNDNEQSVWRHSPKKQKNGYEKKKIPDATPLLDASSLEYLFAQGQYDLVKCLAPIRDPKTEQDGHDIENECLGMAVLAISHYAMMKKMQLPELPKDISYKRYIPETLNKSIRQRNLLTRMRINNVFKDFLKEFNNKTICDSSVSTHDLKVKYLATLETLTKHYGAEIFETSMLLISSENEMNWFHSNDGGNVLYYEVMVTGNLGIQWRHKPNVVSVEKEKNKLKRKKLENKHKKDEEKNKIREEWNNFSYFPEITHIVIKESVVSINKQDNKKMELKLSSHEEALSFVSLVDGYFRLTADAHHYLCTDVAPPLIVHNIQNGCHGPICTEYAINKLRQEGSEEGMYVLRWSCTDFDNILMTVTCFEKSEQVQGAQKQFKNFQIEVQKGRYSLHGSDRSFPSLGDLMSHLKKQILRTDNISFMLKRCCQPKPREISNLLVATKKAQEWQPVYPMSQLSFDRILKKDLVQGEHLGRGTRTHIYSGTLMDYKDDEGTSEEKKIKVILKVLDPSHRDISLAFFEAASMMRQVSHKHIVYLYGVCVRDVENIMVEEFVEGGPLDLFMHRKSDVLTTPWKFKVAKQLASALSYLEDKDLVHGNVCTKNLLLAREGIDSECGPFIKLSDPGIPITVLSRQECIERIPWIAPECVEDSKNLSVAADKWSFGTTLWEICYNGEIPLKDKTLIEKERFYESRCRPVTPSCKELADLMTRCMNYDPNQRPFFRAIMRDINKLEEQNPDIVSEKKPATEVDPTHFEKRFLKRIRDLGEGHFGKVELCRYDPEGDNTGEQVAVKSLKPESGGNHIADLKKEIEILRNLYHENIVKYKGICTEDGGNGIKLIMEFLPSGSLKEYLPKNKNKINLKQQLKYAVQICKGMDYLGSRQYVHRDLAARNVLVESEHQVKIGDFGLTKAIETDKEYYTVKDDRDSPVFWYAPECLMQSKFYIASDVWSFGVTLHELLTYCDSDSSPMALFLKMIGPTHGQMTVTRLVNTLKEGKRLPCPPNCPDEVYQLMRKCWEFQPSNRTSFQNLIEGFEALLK

JAK2 = JAK2 (Homo sapiens, UniProt O60674); conditions: cited from earlier work
Sequence of JAK2 (O60674 whole entry, species assumed): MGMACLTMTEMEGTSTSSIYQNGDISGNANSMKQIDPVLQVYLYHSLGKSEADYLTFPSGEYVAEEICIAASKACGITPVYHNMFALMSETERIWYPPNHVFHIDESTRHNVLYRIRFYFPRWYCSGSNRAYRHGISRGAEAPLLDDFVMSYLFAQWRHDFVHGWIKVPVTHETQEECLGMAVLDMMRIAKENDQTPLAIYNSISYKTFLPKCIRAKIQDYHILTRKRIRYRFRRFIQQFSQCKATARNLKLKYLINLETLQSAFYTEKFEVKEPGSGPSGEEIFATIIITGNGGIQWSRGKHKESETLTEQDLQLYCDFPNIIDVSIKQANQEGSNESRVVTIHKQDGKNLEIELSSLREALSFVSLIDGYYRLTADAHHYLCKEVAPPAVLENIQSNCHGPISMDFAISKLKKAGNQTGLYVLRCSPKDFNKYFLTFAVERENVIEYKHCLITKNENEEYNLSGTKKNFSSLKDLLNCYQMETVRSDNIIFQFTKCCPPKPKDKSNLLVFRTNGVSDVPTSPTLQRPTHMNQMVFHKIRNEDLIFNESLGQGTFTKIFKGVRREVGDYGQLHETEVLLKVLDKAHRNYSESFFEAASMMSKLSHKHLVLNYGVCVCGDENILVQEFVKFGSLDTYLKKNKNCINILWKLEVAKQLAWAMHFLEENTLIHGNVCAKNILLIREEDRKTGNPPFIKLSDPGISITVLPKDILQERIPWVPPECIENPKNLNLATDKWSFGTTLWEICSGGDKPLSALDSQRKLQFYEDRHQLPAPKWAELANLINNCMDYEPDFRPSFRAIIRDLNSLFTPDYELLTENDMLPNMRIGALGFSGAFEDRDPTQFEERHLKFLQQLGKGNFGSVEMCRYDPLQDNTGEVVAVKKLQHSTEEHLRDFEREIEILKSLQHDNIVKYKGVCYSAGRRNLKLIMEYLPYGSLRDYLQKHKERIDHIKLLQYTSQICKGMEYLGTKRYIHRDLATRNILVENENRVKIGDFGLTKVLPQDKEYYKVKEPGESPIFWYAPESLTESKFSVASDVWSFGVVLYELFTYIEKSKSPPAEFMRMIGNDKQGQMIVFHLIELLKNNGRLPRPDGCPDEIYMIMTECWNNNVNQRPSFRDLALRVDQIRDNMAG

[1] = system: outer hair cells of cochlear explants of P3 FVB mice; assay: Outer hair cell survival in whole-mount cochlear explants treated with aminoglycosides; format: cell-based, mouse
Procedure: A) Representative confocal images of the middle turn of whole-mount cochlear explants from P3 FVB mice treated with medium alone, […] gentamicin, 0.2 μM Momelotinib and […] gentamicin for 24 h. […] HCs are labeled with phalloidin. […] (Mann-Whitney U Test, *P<0.05, **P<0.01) shown in a micromolar concentration.
Now referring to FIG. 2A-B, Momelotinib protects from aminoglycoside toxicity in cochlear explants of P3 FVB mice. FVB mice were bred in the Creighton University animal facility. Procedures were approved by the IACUC committee of the Creighton University. 2A) Inner ears were collected from the post-natal day 3 (P3) FVB mice and transferred onto a filter (Millicell, PICM03050; Millipore) soaked in culturing medium. The filter was placed in 6-well culture plates with 1.2 mL medium outside the filter. The culturing medium is DMEM (10565-018; gibco) with 1% FBS (16000-044; gibco), 500 μL ampicillin (A5354; Sigma), 100 μL N-2 supplement (17502-048, gibco) and 100 μL B-27 supplement (17504-044, gibco). After culturing for 24 h at 37° C. in 5% CO2, 1 mL culturing medium with MMB at 0.2 μM, […] MMB alone or without MMB and added both inside and outside the filter to preincubate for another 1 h before adding gentamicin solution. A 50 μg/mL gentamicin (G1397, Sigma) was chosen to induce around 35% hair cell death after incubation for 24 h at 37° C. For compound CYT-387 or MMB (A10263, AdooQ). The procedures were performed under sterile condition in the culture hood. Cochleae were then fixed with 4% PFA for 30 min and stained with Alexa Fluor 555 phalloidin in to determine the survival rate of the hair cells. All the cochleae images were taken with Zeiss 700 confocal microscopy. […] The survival OHCs were then normalized to 100 μm length to further compare between different experimental conditions. 2B) OHC survival (OHC number per 100 μm length of cochlear middle turn) after treatment with Momelotinib at 0.0016, 0.008, 0.04, 0.2, 1.0, 5.0, 10.0 and 20.0 μM for 1 hour and co-incubated with 100 μM GM for 1 hour, or co-incubated with 600 μM kanamycin (K0254, Sigma) for 1 hour. […]

[2] = 14-day oral toxicity and auditory brainstem response (ABR) thresholds in mice; format: in vivo, C57BL/6 mice
Procedure: Auditory brainstem response (ABR) thresholds were recorded for 3 frequencies (8 kHz, 16 kHz, and 32 kHz) before and after a 14-day MMB treatment protocol. […] Statistical analysis was done with repeated measures ANOVA between groups.
4-week-old C57BL/6 mice obtained from The Jackson Laboratory were used, with a mix of males and females across experiments. Mice were administered a 14-day Momelotinib treatment protocol. Auditory Brainstem Response thresholds were recorded at 8 kHz, 16 kHz, and 32 kHz for a baseline sample of mice and the mice administered Momelotinib.

[3] = system: zebrafish lateral line neuromast hair cells; assay: Zebrafish lateral line neuromast hair cell counts after aminoglycoside; format: in vivo, Danio rerio; conditions: 5dpf larvae, 1 hour pre-incubation 0.002-13.3 μM
Procedure: . Each treatment was pretreated with MMB at the prescribed doses prior to co-treatment with the aminoglycoside. Control animal were treated with DMSO (−) or KM or GM alone (+) Animals were then fixed and immunostained for GFP and otoferlin. Quantification was done by assessing three neuromasts in the same anatomic location of each animal (n=5). The data is plotted as mean+SD. Statistical testing was done with One-way ANOVA and Dunnett post-hoc test (*P<0.05, **P<0.01,***P<0.001).
FIG. 4A-B show Fedratinib (FED) protected zebrafish mechanosensory hair cells against kanamycin (KM) in vivo. 5dpf Tg(Brn3c:mGFP) larvae were used for the experiments. Each treatment was pretreated FED at the prescribed doses prior to co-treatment with the aminoglycoside. […] Control animal were treated with DMSO (−) or KM alone (+) Animals were then fixed and immunostained for GFP and otoferlin. Quantification was done by assessing three neuromasts in the same anatomic location of each animal (n=5). […]
These two markers were used to detect and count neuromast HCs to reduce the chances of missing some of the HCs after the treatment since we previously noticed that incubation with the compounds can affect GFP expression more difficult to detect under a fluorescence microscope (26). […] Compounds were then evaluated on efficiency and potency, with the top-rated compounds showing high protection at lower concentrations. […]

EGFR kinase = EGFR kinase (Homo sapiens, UniProt P00533); conditions: measured value; read-out: IC50 in EGFR kinase inhibition assays; cited from earlier work
Sequence of EGFR kinase (P00533 25-1210): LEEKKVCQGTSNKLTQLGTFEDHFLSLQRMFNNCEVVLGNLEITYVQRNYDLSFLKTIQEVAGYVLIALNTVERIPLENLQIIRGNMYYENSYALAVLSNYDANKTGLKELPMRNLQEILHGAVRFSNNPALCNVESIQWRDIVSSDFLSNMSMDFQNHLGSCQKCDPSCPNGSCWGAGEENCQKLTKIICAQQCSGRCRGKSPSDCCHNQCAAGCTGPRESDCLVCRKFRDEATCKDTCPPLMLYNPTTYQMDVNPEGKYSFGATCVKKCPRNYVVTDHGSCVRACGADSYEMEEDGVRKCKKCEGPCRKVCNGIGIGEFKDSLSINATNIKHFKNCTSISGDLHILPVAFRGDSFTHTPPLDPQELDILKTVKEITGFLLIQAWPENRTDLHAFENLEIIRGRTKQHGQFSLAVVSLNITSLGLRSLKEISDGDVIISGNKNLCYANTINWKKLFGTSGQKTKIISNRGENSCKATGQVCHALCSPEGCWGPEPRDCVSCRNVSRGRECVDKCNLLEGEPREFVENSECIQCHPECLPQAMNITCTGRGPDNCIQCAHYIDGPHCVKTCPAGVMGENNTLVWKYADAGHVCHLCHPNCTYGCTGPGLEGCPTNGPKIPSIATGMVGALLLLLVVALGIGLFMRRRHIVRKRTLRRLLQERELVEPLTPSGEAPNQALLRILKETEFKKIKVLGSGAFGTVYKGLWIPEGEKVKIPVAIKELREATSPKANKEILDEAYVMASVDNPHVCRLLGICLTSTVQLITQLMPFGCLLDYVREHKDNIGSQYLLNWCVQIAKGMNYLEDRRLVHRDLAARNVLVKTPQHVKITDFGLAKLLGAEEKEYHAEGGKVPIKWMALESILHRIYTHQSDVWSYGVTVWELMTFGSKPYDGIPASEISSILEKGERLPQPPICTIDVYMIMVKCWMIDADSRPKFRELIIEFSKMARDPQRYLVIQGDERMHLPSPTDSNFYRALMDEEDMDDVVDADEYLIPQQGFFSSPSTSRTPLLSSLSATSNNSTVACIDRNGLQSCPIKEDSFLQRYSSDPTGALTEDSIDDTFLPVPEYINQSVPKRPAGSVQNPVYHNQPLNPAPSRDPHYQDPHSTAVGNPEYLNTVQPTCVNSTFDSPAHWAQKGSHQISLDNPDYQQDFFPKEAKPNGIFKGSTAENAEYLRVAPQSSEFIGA

[4] = system: panel of 38 non-JAK kinases; conditions: cited from earlier work

Sequence of TYK2 (P29597 whole entry): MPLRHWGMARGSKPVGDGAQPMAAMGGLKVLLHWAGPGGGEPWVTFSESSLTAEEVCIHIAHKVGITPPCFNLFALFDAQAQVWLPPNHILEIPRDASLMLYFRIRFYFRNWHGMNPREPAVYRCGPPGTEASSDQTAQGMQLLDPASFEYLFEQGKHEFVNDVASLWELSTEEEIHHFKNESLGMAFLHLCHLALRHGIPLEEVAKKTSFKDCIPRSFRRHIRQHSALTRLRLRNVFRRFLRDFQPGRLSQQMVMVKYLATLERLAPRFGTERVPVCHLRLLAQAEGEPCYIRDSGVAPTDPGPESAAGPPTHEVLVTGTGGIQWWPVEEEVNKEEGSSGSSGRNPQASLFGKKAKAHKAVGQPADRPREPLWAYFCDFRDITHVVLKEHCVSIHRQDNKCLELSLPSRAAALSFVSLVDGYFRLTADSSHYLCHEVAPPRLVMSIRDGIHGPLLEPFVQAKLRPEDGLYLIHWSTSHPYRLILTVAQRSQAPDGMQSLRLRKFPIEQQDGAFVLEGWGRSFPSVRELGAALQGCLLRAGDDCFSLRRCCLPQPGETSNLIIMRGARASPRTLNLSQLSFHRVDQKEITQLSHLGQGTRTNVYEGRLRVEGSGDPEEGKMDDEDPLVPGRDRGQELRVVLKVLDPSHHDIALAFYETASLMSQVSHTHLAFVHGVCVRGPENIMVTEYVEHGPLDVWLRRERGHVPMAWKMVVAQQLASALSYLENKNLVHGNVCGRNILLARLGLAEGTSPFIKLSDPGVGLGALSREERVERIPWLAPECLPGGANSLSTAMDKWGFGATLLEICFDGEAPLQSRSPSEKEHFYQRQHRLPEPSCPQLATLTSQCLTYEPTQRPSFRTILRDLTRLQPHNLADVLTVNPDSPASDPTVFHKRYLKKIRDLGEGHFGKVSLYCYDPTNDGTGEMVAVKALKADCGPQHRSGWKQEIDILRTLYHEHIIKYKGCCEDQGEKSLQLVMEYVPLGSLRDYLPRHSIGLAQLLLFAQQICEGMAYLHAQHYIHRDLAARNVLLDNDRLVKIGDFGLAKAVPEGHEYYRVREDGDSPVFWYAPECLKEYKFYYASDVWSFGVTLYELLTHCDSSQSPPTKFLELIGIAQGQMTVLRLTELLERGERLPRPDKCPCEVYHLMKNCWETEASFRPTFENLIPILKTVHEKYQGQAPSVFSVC

In the case of `N#Cc1ccc(COc2ccc(-c3cccc4nc(NC(=O)C5CC5)nn34)cc2)cn1` [GLPG0634 analogue], the IC50 (TYK2) is given as 116 nM, the IC50 (JAK3) is given as 810 nM and the IC50 (JAK1) is given as 10 nM. For the same molecule, the IC50 (JAK2; cell-free assay for AZD1480 and AT9283) was 28 nM.
For `COc1cc2ncnc(Nc3ccc(O)cc3)c2cc1OC` [JANEX-1], the IC50 (JAK3) is given as 78000 nM, the “activity against JAK1” value (JAK1) is given as “without altering the activity” and the “activity against JAK2” value (JAK2) is given as “without altering the activity”.
For `N#CCNC(=O)c1ccc(-c2ccnc(Nc3ccc(N4CCOCC4)cc3)n2)cc1` [Momelotinib], the “toxicity to HCs of compound alone” value ([1]; 0.2 μM Momelotinib alone, cochlear explants) was “did not show toxicity”, the “hair cell loss at the middle turn region (phalloidin images)” value ([1]; cotreated with MMB 0.2 μM and gentamicin (GM), 24 h, P3 FVB cochlear explants) was “minimal levels of hair cell loss” and the “protection against aminoglycoside-induced hair cell loss (OHC number per 100 μm length of cochlear middle turn)” value ([1]; cotreatment with Momelotinib and gentamicin or kanamycin, n=5 per group) was “full protection”. For the same molecule, the “inner ear toxicity: ABR thresholds before and after treatment” value ([2]; 8 kHz, 16 kHz and 32 kHz, 14-day Momelotinib protocol) was “No differences”, the “general toxicity in vivo” value ([2]; oral, up to 100 mg/kg/day over a 14-day regimen, 4-week-old C57BL/6 mice) was “not toxic” and the “protection of mechanosensory hair cells against gentamicin (GM)” value ([3]; then GM 100 uM for 1 hour) was “protected”. For the same molecule, the “protection of mechanosensory hair cells against kanamycin (KM)” value ([3]; then KM 200 or 300 uM for 1 hour or 150 uM for 6 hours) was “protected”.
In the case of `NC(=O)c1nc(-c2c(F)cccc2Cl)oc1Nc1ccc(C(=O)N2CCOCC2)cc1` [SAR-20347], the IC50 (TYK2) is given as 0.6 nM, the IC50 (JAK3; cell-free assay for AT9283) is given as 41 nM and the IC50 (JAK1) is given as 23 nM.
In the case of `CC1(C)CN(C(=O)c2ccc(-c3cccc4nc(NC(=O)C5CC5)nn34)cc2)C1` [Solcitinib], the “selectivity for JAK1 over TYK2” value (TYK2) is listed as 23 fold, the “selectivity for JAK1 over JAK3” value (JAK3) is listed as 55 fold and the IC50 (JAK1) is listed as 8 to 9 nM. The “selectivity for JAK1 over JAK2” value (JAK2) was 11 fold.
For `COc1cc2ncnc(Nc3cc(Br)c(O)c(Br)c3)c2cc1OC` [WHI-P97], the IC50 (EGFR kinase) is listed as 2500 nM.
For `COc1cc2ncnc(Nc3ccc(O)c(Br)c3)c2cc1OC` [WHI-P154], the “activity against JAK1” value (JAK1) is given as “no activity” and the “activity against JAK2” value (JAK2) is given as “no activity”.
In the case of `CC(C)N(CCC(=O)c1ccc2ccccc2c1)Cc1ccccc1` [ZM 39923 HCl], the “activity against JAK2” value (JAK2) is listed as “almost no activity”.
In the case of Oclacitinib maleate, the “inhibition of a panel of 38 non-JAK kinases” value [4] is given as “does not inhibit”.
